Source: patent US5604236A, “Beta-carboline thromboxane synthase inhibitors” (Eli Lilly and Company, priority 1995, dated 1997)
pIC50: −log10 of the molar value. Blank lines part the entries; values can stand above or below the compound they belong to.

What was measured:
[1] = test system: 6-keto-PGF1a (prostacyclin generation); conditions: stated as well known; result in words; cited from earlier work
[2] = molecular target: T1, thromboxane synthase (Homo sapiens, UniProt P24557); assay: Thromboxane Synthase Inhibition (TSI) Test, serum TXB2 by radioimmunoassay in human whole blood; type: cell-based; conditions: fresh whole human blood, 30 min at 37° C., then CaCl2 1 hour; TXB2 RIA; read-out: IC50 (concentration of compound required to reduce thromboxane generation to 50% of that obtained with vehicle alone)
T1 construct: incubated with fresh whole human blood, that had been anticoagulated with 0.38% trisodium citrate; from tissue; host or cells: fresh whole human blood (citrated, recalcified to clot)
T1 sequence (P24557 1-533): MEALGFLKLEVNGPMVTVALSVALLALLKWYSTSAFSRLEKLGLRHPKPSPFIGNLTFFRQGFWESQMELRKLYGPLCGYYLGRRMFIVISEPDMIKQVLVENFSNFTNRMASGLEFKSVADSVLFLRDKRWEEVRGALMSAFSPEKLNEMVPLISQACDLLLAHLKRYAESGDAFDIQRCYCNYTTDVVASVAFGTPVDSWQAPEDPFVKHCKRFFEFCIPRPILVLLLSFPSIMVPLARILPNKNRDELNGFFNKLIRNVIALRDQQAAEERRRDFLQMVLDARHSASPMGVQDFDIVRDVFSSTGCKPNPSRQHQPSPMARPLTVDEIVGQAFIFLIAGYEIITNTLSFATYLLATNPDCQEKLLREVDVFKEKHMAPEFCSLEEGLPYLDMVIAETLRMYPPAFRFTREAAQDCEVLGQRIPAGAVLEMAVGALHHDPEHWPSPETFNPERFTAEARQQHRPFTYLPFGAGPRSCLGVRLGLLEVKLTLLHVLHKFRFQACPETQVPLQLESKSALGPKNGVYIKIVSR
Procedure: (§1) The ability of the compounds of the present invention to be an effective thromboxane synthase inhibitors were evaluated in the following Thromboxane Synthase Inhibition (TSI) Assay with the results shown in Table 2 below: The test compounds were dissolved in dimethylsulfoxide. The compound solutions were incubated with fresh whole human blood, that had been anticoagulated with 0.38% trisodium citrate, for 30 minutes at 37° C. After 30 minutes, 0.025 ml of 0.5M calcium chloride solution was added to each 1 ml of blood and further incubated for one hour at 37° C. Serum was prepared by centrifugation of the blood at 2000×g for 15 minutes in a Beckman table top centrifuge. Serum TXB2 and 6-keto-PGF1a, the stable metabolites of and markers of synthesis of TXA2 and prostacyclin respectively, were measured by radioimmunoassay by commonly used test methods (see, Refs.,1 & 2 below). Results from the radioimmunoassay of TXB2 were used to calculate the IC50 (concentration of compound required to reduce thromboxane generation to 50% of that obtained with vehicle alone).

[3] = test system: 6-keto-PGF1a (prostacyclin generation); assay: Serum 6-keto-PGF1a (prostacyclin generation) by radioimmunoassay in human whole blood; type: cell-based; conditions: for Serum 6-keto-PGF1a: vehicle 2.43
Procedure: as §1, with “The” for “The ability of the compounds of the present invention to be an effective thromboxane synthase inhibitors were evaluated in the following Thromboxane Synthase Inhibition (TSI) Assay with the results shown in Table 2 below: The”
Data determined from the radioimmunoassay of 6-keto-PGF1a (reflecting prostacyclin generation) allowed a determination of the specificity of the compound of example 1 for the inhibition of thromboxane synthase as indicated by increased levels of 6-keto-PGF1a relative to the less specific inhibition of cyclooxygenase by aspirin.

[4] = test system: TXB2; assay: Serum TXB2 levels ex vivo after oral or i.v. administration to rats; type: in vivo; conditions: rat
Procedure: The blood was allowed to clot in glass tubes for 1 hour at 37° C. Serum was collected after sedimentation of the clot by centrifugation at 2000×g for 15 minutes in a Beckman table top centrifuge. The levels of TXB2 were measured in the serum by radioimmunoassay.

SMILES: CC(=O)Oc1ccccc1C(=O)O [Aspirin]
generation of 6-keto-PGF1a [1]: completely inhibit

SMILES: O=C(O)CCCCCn1c2ccccc2c2ccncc21 [Example 1, 9H-Pyrido(3,4-β)indole-9-hexanoic acid]
pIC50 [2]: 7.28
Serum 6-keto-PGF1a ([3]; 0.001 μM): 3.01 ng/mL
Serum 6-keto-PGF1a ([3]; 0.01 μM): 5.09 ng/mL
Serum 6-keto-PGF1a ([3]; 0.1 μM): 7.07 ng/mL
Serum 6-keto-PGF1a ([3]; 1 μM): 7.71 ng/mL
Serum 6-keto-PGF1a ([3]; 10 μM): 7.82 ng/mL
effect on human serum 6-keto-PGF1a levels ([3]; human serum, result in words): dose-dependent stimulatory effect
Serum TXB2 (% control) ([4]; i.v., 0.01 mg/kg, 15 minutes): 69 % control
Serum TXB2 (% control) ([4]; i.v., 0.1 mg/kg, 15 minutes): 14 % control
Serum TXB2 (% control) ([4]; i.v., 1 mg/kg, 15 minutes): 4 % control
availability by oral and i.v. routes ([4]; inferred from decreased serum TXB2, result in words): availability of the compounds by both oral and i.v. routes
Serum TXB2 (% control) ([4]; oral, 0.1 mg/kg, one hour): 54 % control
Serum TXB2 (% control) ([4]; oral, 1 mg/kg, one hour): 16 % control
Serum TXB2 (% control) ([4]; oral, 10 mg/kg, one hour): 2 % control
Serum TXB2 (% control) ([4]; oral, 100 mg/kg, one hour): 1 % control

pIC50 [2]: 4.72
SMILES: O=C(O)CCCn1c2ccccc2c2ccncc21 [Example 2, 9H-Pyrido (3,4-β)indole-9-butanoic acid]

pIC50 [2]: 7.00
SMILES: O=C(O)CCCCn1c2ccccc2c2ccncc21 [Example 3, 9H-Pyrido (3,4-β)indole-9-pentanoic acid]

pIC50 [2]: 6.68
SMILES: O=C(O)CCCCCCn1c2ccccc2c2ccncc21 [Example 4]

pIC50 [2]: 7.17
SMILES: O=C(O)CCCCCn1c2ccc(Br)cc2c2ccncc21 [Example 5, 6-Bromo-9H-pyrido(3,4-β)indole-9-hexanoic acid]

pIC50 [2]: 7.51
SMILES: Cc1ccc2c(c1)c1ccncc1n2CCCCCC(=O)O [Example 6, 6-Methyl-9H-pyrido(3,4-β)indole-9-hexanoic acid]

pIC50 [2]: 7.31
SMILES: COc1ccc2c(c1)c1ccncc1n2CCCCCC(=O)O [Example 7, 6-Methoxy-9H-pyrido(3,4-β)indole-9-hexanoic acid]

pIC50 [2]: 7.04
SMILES: O=C(O)CCCCCn1c2ccc([N+](=O)[O-])cc2c2ccncc21 [Example 8, 6-Nitro-9H-pyrido(3,4-β)indole-9-hexanoic acid]
